Data: ChEMBL document CHEMBL1156292, “Zwittermicin A: synthesis of analogs and structure-activity studies” (2010)
In brackets after ≈: the same amount, converted by molar mass.

Columns and labels:
Assay type in all cases: functional
Nakaseomyces glabratus = assay: Antifungal activity against Candida glabrata by disk diffusion assay
Pichia kudriavzevii = assay: Antifungal activity against Candida krusei by disk diffusion assay
Erwinia amylovora = assay: Antibacterial activity against Erwinia amylovora by disk diffusion assay
Candida albicans [1] = assay: Antifungal activity against Candida albicans UCDFR1 by disk diffusion assay
[2] = system: Pectobacterium carotovorum; assay: Antibacterial activity against Erwinia carotovora by disk diffusion assay
Candida albicans [3] = assay: Antifungal activity against Candida albicans ATCC 14503 by disk diffusion assay
Phytophthora infestans = assay: Antifungal activity against Phytophthora infestans by disk diffusion assay
Candida albicans [4] = assay: Antifungal activity against Candida albicans 96-489 by disk diffusion assay

Compound	MIC (Nakaseomyces glabratus) [µg/mL]	MIC (Pichia kudriavzevii) [µg/mL]	MIC (Erwinia amylovora) [µg/mL]	MIC (Candida albicans [1]) [µg/mL]	MIC [2] [µg/mL]	MIC (Candida albicans [3]) [µg/mL]	MIC (Phytophthora infestans) [µg/mL]	MIC (Candida albicans [4]) [µg/mL]
N[C@H](CO)[C@@H](O)C[C@H](O)[C@H](N)CO	> 128	> 128	> 128	> 128	> 128	> 128	> 32	> 128
NC(=O)NC[C@H](NC(=O)[C@H](O)[C@@H](O)[C@@H](N)[C@@H](O)C[C@H](O)[C@H](N)CO)C(N)=O	59.5 (≈ 150 µM)	> 128	18.8 (≈ 47.4 µM)	> 128	22.2 (≈ 56 µM)	> 128	> 32	55.7 (≈ 141 µM)
NC(=O)NC[C@@H](NC(=O)[C@H](O)[C@@H](O)[C@@H](N)[C@@H](O)C[C@@H](O)[C@@H](N)CO)C(N)=O	> 128	> 128	> 128	> 128	> 128	> 128	> 32	> 128
N[C@H](CO)[C@H](O)C[C@H](O)[C@H](N)CO	> 128	> 128	–	> 128	–	> 128	–	> 128
NC(=O)NC[C@@H](NC(=O)[C@@H](O)[C@H](O)[C@H](N)[C@H](O)C[C@@H](O)[C@@H](N)CO)C(N)=O [ENT-ZWITTERMICIN A]	> 128	> 128	> 128	> 128	> 128	> 128	> 32	> 128
N[C@H](CO)[C@@H](O)C[C@H](O)[C@@H](N)CO	> 128	> 128	–	> 128	–	> 128	–	> 128
NC(=O)NC[C@H](NC(=O)[C@H](O)[C@@H](O)[C@@H](N)[C@@H](O)C[C@@H](O)[C@@H](N)CO)C(N)=O	> 128	> 128	> 128	> 128	> 128	> 128	> 32	> 128
NC(=O)NC[C@H](NC(=O)[C@@H](O)[C@H](O)[C@H](N)[C@H](O)C[C@@H](O)[C@@H](N)CO)C(N)=O	> 128	> 128	> 128	> 128	> 128	> 128	> 32	> 128
N[C@@H](CO)[C@H](O)C[C@H](O)[C@@H](N)CO	> 128	> 128	–	> 128	–	> 128	–	> 128
N[C@@H](CO)[C@H](O)C[C@@H](O)[C@@H](N)CO	> 128	> 128	–	> 128	–	> 128	–	> 128
N[C@H](CO)[C@H](O)C[C@H](O)[C@@H](N)CO	> 128	> 128	–	> 128	–	> 128	–	> 128
N[C@@H](CO)[C@@H](O)C[C@H](O)[C@@H](N)CO	> 128	> 128	–	> 128	–	> 128	–	> 128
NC(=O)NC[C@@H](NC(=O)[C@@H](O)[C@H](O)[C@H](N)CO)C(N)=O	> 128	> 128	> 128	> 128	> 128	> 128	> 32	> 128
NC(=O)NC[C@H](NC(=O)[C@@H](O)[C@H](O)[C@H](N)CO)C(N)=O	> 128	> 128	> 128	> 128	> 128	> 128	> 32	> 128
